Reference: patent US8865901B2, “Gain-of-function Bcl-2 inhibitors” (priority 2009, dated 2014)
Read-outs that look alike come from different tables or passages of the source.

Assays:
[1] = test system: TAMH cells transfected with Neo vector (Neo); experiment: Cytotoxicity / apoptosis induction in TAMH cells transfected with Neo vector; format: cell-based; conditions: TAMH Neo cells
Description: (§1) To examine the sensitivity of cells over-expressing Bcl-xL to various mitochondrial inhibitors and apoptosis inducers, cell lines over-expressing Bcl-xL were prepared and tested according to Hockenberry et al. U.S. Pat. No. 7,241,804, hereby incorporated by reference in its entirety. Competitive binding of compounds with fluorescent antimycin A3, and competitive binding of compounds with BH3 peptide and Bcl-2. Competitive binding of compounds with BH-3 peptide were also measured using Bcl-xL as previously described. Id.
(§2) Cell lines were grown in RPMI 1640 medium (Gibco, Grand Island, N.Y.) supplemented with 5% fetal bovine serum (Hyclone, Logan, Utah). Also shown is the ratio of TAMH cells expressing Bcl-xL to those expressing A142L (WT:142L). The assay measures the potency of various compounds with respect to inducing apoptosis in these cells.
(§3) The compounds described in Example 2 were tested for their ability to inhibit Bcl-2 gain-of-function in TAMH cells, TAMH cells overexpressing […] (TAMH-Bcl-xL), TAMH cells transfected with Neo vector (Neo), TAMH cells over expressing a variant of Bcl-xL (A142L) using the methods of Example 1. 3-6.
(§4) The effects of the compounds described in Example 8 on TAMH cells, TAMH cells overexpressing Bcl-xL (TAMH-Bcl-xL), TAMH cells transfected with Neo vector (Neo), TAMH cells over expressing a variant of Bcl-xL (A142L) is shown in Table 8
(§5) The effects of the compounds described in Example 10 on TAMH cells, TAMH cells overexpressing Bcl-xL (TAMH-Bcl-xL), TAMH cells transfected with Neo vector (Neo), TAMH cells over expressing a variant of Bcl-xL (A142L) is shown in the following Table 10

[2] = test system: CFPAC-1, HPAF-II MIA PaCa, PaTu-1, PaTu-8988t, ASPC-1, FA-6, and PANC-1 cell lines; experiment: EC50 in a panel of pancreatic cell lines; format: cell-based; conditions: Homo sapiens; every pancreatic cell line of the panel, but for HPAF-II; FIG. 1
Description: The EC50 for the Compound 0216 (see structure above) was determined in a panel of pancreatic cell lines.
(§6) The panel included CFPAC-1, HPAF-II MIA PaCa, PaTu-1, PaTu-8988t, ASPC-1, FA-6, and PANC-1 cell lines. Pancreatic cancer samples were obtained from patients, with appropriate patient consent and approval of the Fred Hutchinson Cancer Research Center Institutional Review Board. Primary cells were maintained in Iscove's medium supplemented with 10% bovine calf serum, 100 ng·ml^−1 stem cell factor, and 50 ng·ml^−1 interleukin-3.
The EC50 values were measured with compound 216. […] This means that this molecule has a broad ability to induce apoptosis in a wide variety of pancreatic cancers.
as §6, with “institutional approval.” for “approval of the Fred Hutchinson Cancer Research Center Institutional Review Board.”
The EC50 values were measured with compound FH279.

[3] = test system: TAMH cells overexpressing Bcl-xL (TAMH-Bcl-xL, Tabx2s); experiment: Cytotoxicity / apoptosis induction in TAMH cells overexpressing Bcl-xL; format: cell-based
Description: as §1, §2, §3, §4, §5

H23, NSCLC tumor = experiment: Apoptosis induction against solid tumors in vitro, H23; format: cell-based; conditions: Table 7
Description: (§7) The ability of compounds from Example 2 to induce apoptosis against solid tumors in vitro was tested. Four solid tumors were tested: OVCAR-3, an ovarian tumor; COLO205, a colonic tumor; HOP-62 and H23, both NSCLC tumors. The experimental compounds were compared to 2MeAA and to ABT-737, a clinical stage compound owned by Abbott Pharma.
(§8) The ability of compounds of Example 8 to induce apoptosis against solid tumors in vitro was tested. Four solid tumors were tested: OVCAR-3, an ovarian tumor; COLO205, a colonic tumor; HOP-62 and H23, both NSCLC tumors. The experimental compounds, […]

HOP-62, NSCLC tumor = experiment: Apoptosis induction against solid tumors in vitro, HOP-62; format: cell-based; conditions: Table 7
Description: as §7, §8

COLO205, a colonic tumor = experiment: Apoptosis induction against solid tumors in vitro, COLO205; format: cell-based; conditions: Table 7
Description: as §7, §8

[4] = test system: TAMH cells over expressing a variant of Bcl-xL (A142L); experiment: Cytotoxicity / apoptosis induction in TAMH cells over expressing Bcl-xL variant A142L; format: cell-based; conditions: Table 4
Description: as §1, §2, §3

[5] = test system: OVCAR-3, an ovarian tumor; experiment: Apoptosis induction against solid tumors in vitro, OVCAR-3; format: cell-based; conditions: Table 7
Description: as §7, §8

Colo205 cells = experiment: Mouse colon carcinoma xenograft model; format: in vivo, NOD/Les2 SCID/J mice; conditions: daily intraperitoneal administration, single agent; FIG. 4
Description: The ability of the experimental compounds to inhibit tumor growth in a body was tested in a mouse colon carcinoma xenograft model.
(§9) Six to nine-week old NOD/Les2 SCID/J mice were inoculated with 3×10^7 Colo205 cells by interscapular subcutaneous injection. Mice were maintained under specific pathogen-free conditions. Palpable tumor nodules were measured in two dimensions with calipers and tumor volumes calculated in mm3 as (length×width^2)/2. Blood samples were collected by retro-orbital bleed for human light chain measurements by ELISA using lambda-specific antibody (BD Biosciences). Animals were sacrificed by halothane inhalation, and histologic examination of the tumors and internal organs was performed. All experiments were approved by the FHCRC Institutional Animal Care and Use Committee.
Animals were treated by daily intraperitoneal administration of Compound 0511 (see structure above in Example 2).
as §9, with “Animals were sacrificed by halothane inhalation, and histologic examination of the tumors and internal organs was performed. All experiments were approved by the FHCRC Institutional Animal Care and Use Committee.” left out

## O=[N+]([O-])c1ccc(SCc2ccccc2)c2nonc12 [Compound 0216]
[1]; Mus musculus, Table 6, read-out: Neo EC50
  EC50: 3.7 µM
[2]
  EC50: < 10 µM
[3]; Mus musculus, Table 6, TAMH cells overexpressing Bcl-xL (Tabx2s), read-out: 2S EC50
  EC50: 1200 nM
[3]; TAMH cells overexpressing Bcl-xL compared to TAMH neo cells, FIG. 2
  sensitivity to the apoptosis-inducing effects: more sensitive

## Oc1c(Br)cc(Cl)cc1/C=N/Nc1ccc(C(F)(F)F)cn1 [Compound 0239]
H23, NSCLC tumor
  EC50: 5.6 µM
HOP-62, NSCLC tumor
  EC50: 19.1 µM
[1]; Table 4, read-out: Neo
  EC50: 17.2 µM
COLO205, a colonic tumor
  EC50: > 25 µM
[3]; Table 4, TAMH-Bcl-xL cells, read-out: Bcl-xL
  EC50: 4300 nM
[3]; Table 4, ratio Neo to Bcl-xL cells
  Neo:Bcl: 4
[4]; TAMH A142L cells
  EC50: 13.3 µM
[4]; ratio of TAMH cells expressing Bcl-xL to those expressing A142L
  WT:142L: 3.1
[5]
  EC50: 4.2 µM

## O=C1c2ccccc2C(=O)c2c1n[n+]([O-])n2CCCN1CCN(c2ccccn2)CC1 [Compound 0511]
Colo205 cells
  tumor growth: effective in inhibiting tumor growth
